Experimental data as given in PubChem BioAssay AID1963440 (Molecular Pharmacology Branch, DTP, NCI, 2024).

Tested on: NCI-H1417 complex spheroids, growth % test/control
Assay: Anticancer human tumor NCI-H1417 cell line growth inhibition [Asc];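 also: spheroids exposed to compounds for 7 days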;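 as to viability, T/C: 100% = DMSO vehicle control wells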
Conditions: for IC50: curve of first compound; for viability, T/C: stronger effect = lower value
Procedure: Multicellular complex tumor spheroid response to apoptosis pathway targeting inhibitors Alrizomadlin, Pelcitoclax, and Dasminapant in combination with a variety of drugs and investigational agents in selected tumor cell lines
The MDM2 inhibitor alrizomadlin, the Bcl-2/Bcl-xL inhibitor pelcitoclax, and the IAPs inhibitor dasminapant were evaluated both individually and in combination with standard of care and investigational anticancer small molecules within a complex spheroid model of solid tumors. . Complex spheroids include a stromal component modeled by human endothelial cells (HUVEC) and fibroblasts modeled by human mesenchymal stem cells (MSCs). The concentration ranges selected for each drug and investigational agent were based upon clinically achievable concentrations if the clinical Cmax of the agent was known.
Compounds. The drugs and investigational agents: alrizomadlin (APG-115; NSC831270), pelcitoclax (APG-1252; NSC835773), dasminapant (APG-1387;NSC834197), TAK-243 (NSC785004), copanlisib (NSC809693), olaparib (NSC753686), talazoparib (NSC767125), cobimetinib (NSC 768068), eltanexor (KPT-8602, NSC 794443), abemaciclib (NSC 768073), sotorasib (NSC818433), adagrasib (NSC 831453), MRTX-1133 (NSC 836407), Iadademestat (ORY1001, NSC 806812), and RMC-4630 (NSC839698), were obtained from the NCI Developmental Therapeutics Program Chemical Repository. The FDA-approved anticancer drug set is available from the Developmental Therapeutics Program at https://dtp.cancer.gov/organization/dscb/obtaining/available plates.htm. […] The stock solutions were prepared in dimethyl sulfoxide (DMSO, Sigma-Aldrich, St. Louis, MO, cat. D2650) at 800-fold the tested concentration and stored at -70 degrees C prior to their use. All drugs and investigational agents were tested over a range starting from a high concentration at or near the clinical Cmax and decreasing in half-log increments. If the clinical Cmax for an agent had not been determined, the highest concentration tested was 10 microM.
The patient-derived cancer (PDC) cell lines include five colon adenocarcinomas: 186277-243-T-J2-PDC, 616215-338-R-J1-PDC, 439559-082-T-J2-PDC, 463943-066-T-J2-PDC, and 519858-162-T-J1-PDC; three pancreatic carcinomas: 323965-272-R-J2-PDC, 521955-158-R6-J3-PDC, and 521955-158-R2-J5-PDC; two uterine sarcomas: 327498-152-R-J2-PDC and 993429-296-R-J1-PDC; two rhabdomyosarcomas: 755483-174-R-J1-PDC and 772245-204-R-J1-PDC; two soft tissue sarcomas: 126254-015-R-J1-PDC and 494315-158-R-J1-PDC; two malignant fibrous histiocytomas: 317291-083-R-J1-PDC and 596521-263-R-J1-PDC; two breast carcinomas: 171881-019-R-J1-PDC and 885512-296-R-J2-PDC; and one ovarian carcinoma: 6556581-035-R-J-PDC were obtained from the NCI PDMR, (https://pdmr.cancer.gov). The established cell lines HSSY-2 synovial sarcoma (RRID:CVCL 8719), SYO-1 synovial sarcoma (RRID:CVCL_7146), MPNST malignant peripheral neural sheath tumor were obtained from the Sloan Kettering Institute. The following established cell lines were purchased from the American Type Culture Collection (ATCC, Manassas, VA), Sor the received from the NCI repository:, PANC-1 pancreatic carcinoma (CRL-1469, RRID:CVCL_0480), OVCAR-5 ovarian carcinoma (RRID:CVCL_1628), OVCAR-8 ovarian carcinoma (RRID:CVCL_1629), , MCF-7 breast carcinoma (CRL-12584, RRID:CVCL_0031), MDA-MB-231 breast carcinoma (CRL-12532, RRID:CVCL_0062), NCI-H1876 small cell lung carcinoma (CRL-5902, RRID:CVCL_1503), NCI-H510A small cell lung carcinoma (HTB-184, RRID:CVCL_1565), NCI-H1417 (CRL-5869, RRID:CVCL_1469), and NCI-H196 small cell lung carcinoma (CRL-5823, RRID:CVCL_1509). Dr. Peter Houghton (Greehey Children's Cancer Research Institute, University of Texas Health Science Center, San Antonio, TX) provided Rh-18 rhabdomyosarcoma (RRID:CVCL_1659). Pooled donor human umbilical vein endothelial cells (HUVEC, Lonza, cat. CC-2519) and human mesenchymal stem cells (hMSC, Lonza, cat. PT-2501) were purchased from Lonza (Walkersville, MD).
Cell Culture. […]

[1] = second compound 0.03 µM, first compound 0.00316 µM
[2] = second compound 0.03 µM, first compound 0.01 µM
[3] = second compound 0.03 µM, first compound 0.0316 µM
[4] = second compound 0.03 µM, first compound 0.1 µM
[5] = second compound 0.03 µM, first compound 0.316 µM
[6] = second compound 0.03 µM, first compound 1 µM
[7] = second compound 0.0949 µM, first compound 0.00316 µM
[8] = second compound 0.0949 µM, first compound 0.01 µM
[9] = second compound 0.0949 µM, first compound 0.0316 µM
[10] = second compound 0.0949 µM, first compound 0.1 µM
[11] = second compound 0.0949 µM, first compound 0.316 µM
[12] = second compound 0.0949 µM, first compound 1 µM
[13] = second compound 0.3 µM, first compound 0.00316 µM
[14] = second compound 0.3 µM, first compound 0.01 µM
[15] = second compound 0.3 µM, first compound 0.0316 µM
[16] = second compound 0.3 µM, first compound 0.1 µM
[17] = second compound 0.3 µM, first compound 0.316 µM
[18] = second compound 0.3 µM, first compound 1 µM
[19] = second compound 0.949 µM, first compound 0.00316 µM
[20] = second compound 0.949 µM, first compound 0.01 µM
[21] = second compound 0.949 µM, first compound 0.0316 µM
[22] = second compound 0.949 µM, first compound 0.1 µM
[23] = second compound 0.949 µM, first compound 0.316 µM
[24] = second compound 0.949 µM, first compound 1 µM
[25] = second compound 3 µM, first compound 0.00316 µM
[26] = second compound 3 µM, first compound 0.01 µM
[27] = second compound 3 µM, first compound 0.0316 µM
[28] = second compound 3 µM, first compound 0.1 µM
[29] = second compound 3 µM, first compound 0.316 µM
[30] = second compound 3 µM, first compound 1 µM

SMILES	IC50 (second compound 0.03 µM)	IC50 (second compound 0.0949 µM)	IC50 (second compound 0.3 µM)	IC50 (second compound 0.949 µM)	IC50 (second compound 3 µM)	viability, T/C [1]	viability, T/C [2]	viability, T/C [3]	viability, T/C [4]	viability, T/C [5]	viability, T/C [6]	viability, T/C [7]	viability, T/C [8]	viability, T/C [9]	viability, T/C [10]	viability, T/C [11]	viability, T/C [12]	viability, T/C [13]	viability, T/C [14]	viability, T/C [15]	other results
CCN1CCN(Cc2ccc(Nc3ncc(F)c(-c4cc(F)c5nc(C)n(C(C)C)c5c4)n3)nc2)CC1 + CCN1C(C(=O)NC23CCC(C(=O)O)(CC2)CC3)C(c2cccc(Cl)c2F)C2(C(=O)Nc3cc(Cl)ccc32)C12CCCCC2	> 1 µM	> 1 µM	> 1 µM	> 1 µM	> 1 µM	108%	110%	93.6%	93.8%	97.8%	83%	103%	104%	92.7%	98.2%	94%	91.5%	103%	100%	110%	viability, T/C [16]: 102%; viability, T/C [17]: 95.7%; viability, T/C [18]: 81.2%; viability, T/C [19]: 87.2%; viability, T/C [20]: 93.1%; viability, T/C [21]: 88.2%; viability, T/C [22]: 91.1%; viability, T/C [23]: 88.8%; viability, T/C [24]: 78.4%; viability, T/C [25]: 99.5%; viability, T/C [26]: 91.1%; viability, T/C [27]: 98.8%; viability, T/C [28]: 91.4%; viability, T/C [29]: 83.8%; viability, T/C [30]: 75.1%
O=C(c1ccc(F)c(F)c1Nc1ccc(I)cc1F)N1CC(O)([C@@H]2CCCCN2)C1 + CCN1C(C(=O)NC23CCC(C(=O)O)(CC2)CC3)C(c2cccc(Cl)c2F)C2(C(=O)Nc3cc(Cl)ccc32)C12CCCCC2	> 1 µM	> 1 µM	> 1 µM	> 1 µM	> 1 µM	85.9%	91.6%	88.9%	85.9%	88.2%	81.2%	101%	89%	97.5%	84.1%	88.8%	88.8%	94.6%	76.9%	91.6%	viability, T/C [16]: 89.6%; viability, T/C [17]: 85.4%; viability, T/C [18]: 89.5%; viability, T/C [19]: 79.4%; viability, T/C [20]: 87.8%; viability, T/C [21]: 85%; viability, T/C [22]: 87.5%; viability, T/C [23]: 78.8%; viability, T/C [24]: 87.8%; viability, T/C [25]: 86.7%; viability, T/C [26]: 87.5%; viability, T/C [27]: 78.5%; viability, T/C [28]: 89%; viability, T/C [29]: 90.7%; viability, T/C [30]: 77%
